Measurements as given in patent US20230371511A1, “MIXTURES CONTAINING CYCLOBUTRIFLURAM” (BASF SE, priority 2020, published 2023).

Experiments:
Assay type in all cases: cell-based
Details in all cases: single active, 7 days after inoculation
[1] = tested on: Alternaria solani; assay: Microtest: activity against early blight caused by Alternaria solani (MTP growth, 405 nm)
Description: (§1) The active compounds were formulated separately as a stock solution having a concentration of 10000 ppm in dimethyl sulfoxide.
(§2) The measured parameters were compared to the growth of the active compound-free control variant (100%) and the fungus-free blank value to determine the relative growth in % of the pathogens in the respective active compounds.
(§3) These percentages were converted into efficacies.
(§4) The stock solutions were mixed according to the ratio, pipetted onto a micro titer plate (MTP) and diluted with water to the stated concentrations. A spore suspension of Alternaria solani in an aqueous biomalt or yeast-bactopeptone-glycerine or DOB solution was then added. The plates were placed in a water vapor-saturated chamber at a temperature of 18° C. Using an absorption photometer, the MTPs were measured at 405 nm 7 days after the inoculation.
(§5) An efficacy of 0 means that the growth level of the pathogens corresponds to that of the untreated control; an efficacy of 100 means that the pathogens were not growing.
(§6) The expected efficacies of active compound mixtures were determined using Colby's formula [R. S. Colby, “Calculating synergistic and antagonistic responses of herbicide combinations”, Weeds 15, 20-22 (1967)] and compared with the observed efficacies.

[2] = tested on: Colletotrichum orbiculare; assay: Microtest: activity against anthracnose caused by Colletotrichum orbiculare (MTP growth, 405 nm)
Description: as §1, §2, §3
as §4, with “Colletotrichum orbiculare” for “Alternaria solani”, “bio malt” for “biomalt or yeast-bactopeptone-glycerine or DOB”
as §5, §6

[3] = tested on: Cercospora sojina; assay: Microtest: activity against Cercospora sojina (MTP growth, 405 nm)
Experimental: as §1
as §4, with “Cercospora sojina” for “Alternaria solani”, “COB” for “DOB”
as §2, §3, §5, §6

[4] = tested on: Rhizoctonia solani; assay: Microtest: activity against Rhizoctonia solani (MTP growth, 405 nm)
Experimental: as §1
as §4, with “Rhizoctonia” for “Alternaria”, “COB” for “DOB”, “[…].” for “18° C.”
as §2, §3, §5, §6

[5] = tested on: Septoria tritici; assay: Microtest: activity against leaf blotch on wheat caused by Septoria tritici (MTP growth, 405 nm)
Experimental: as §1
as §4, with “Septoria tritici” for “Alternaria solani”
as §2, §3, §5, §6

[6] = 0.25 ppm, 0 = growth as untreated control, 100 = no growth

Question: Which Observed efficacy ([1]; 0.004 ppm) does the source give for `O=C(NC1CCC1c1ccc(Cl)cc1Cl)c1cccnc1C(F)(F)F` (stereo in doubt) [Cyclobutrifluram, cyclobutrifluram] here?
Answer: 40

Question: What about the Observed efficacy ([1]; 0.016 ppm) of the same molecule?
Answer: 74

Question: And the Observed efficacy ([2]; 1 ppm)?
Answer: 1

Question: And the Observed efficacy ([3]; 0.016 ppm)?
Answer: 18

Question: What about the Observed efficacy ([4]; 1 ppm) of the same molecule?
Answer: 0

Question: What about the Observed efficacy ([5]; 0.063 ppm) of the same molecule?
Answer: 0

Question: And the Observed efficacy [5, 6]?
Answer: 7

Question: With `Cn1cc(C(=O)Nc2ccccc2-c2cc(F)c(F)c(F)c2)c(C(F)F)n1` [Fluxapyroxad, fluxapyroxad] as the molecule, how does the Observed efficacy ([4]; 0.25 ppm) read?
Answer: 46

Question: With `Cc1nc2c(F)c(F)ccc2cc1Oc1cccc(F)c1C(C)(C)O` [Ipflufenoquin, ipflufenoquin] as the molecule, how does the Observed efficacy ([1]; 0.004 ppm) read?
Answer: 9

Question: And the Observed efficacy ([2]; 0.25 ppm)?
Answer: 25

Question: What does the source list for `COCC(=O)N(c1c(C)cccc1C)[C@H](C)C(=O)OC` [Mefenoxam, mefenoxam]?
Answer: Observed efficacy ([5]; 0.063 ppm): 6; Observed efficacy ([5]; 1 ppm): 4; Observed efficacy ([5]; 4 ppm): 2

Question: How did the Observed efficacy ([5]; 0 ppm (so in the source)) turn out when `CC(O)(Cn1cncn1)c1ccc(Oc2ccc(Cl)cc2)cc1C(F)(F)F` (stereo not drawn) [Mefentrifluconazol, mefentrifluconazole] was run?
Answer: 68

Question: And the Observed efficacy ([5]; 0.063 ppm)?
Answer: 61

Question: And the Observed efficacy [5, 6]?
Answer: 70

Question: For `Cc1cc(C(F)(F)F)nn1CC(=O)N1CCC(c2nc(C3=NOC(c4c(F)cccc4F)C3)cs2)CC1` (stereo not drawn) [Oxathiapirolin, oxathiapiprolin], which Observed efficacy ([1]; 0.063 ppm) is on record?
Answer: 0

Question: With `Cn1nnnc1/C(=N\OCc1cccc(NC(=O)OC(C)(C)C)n1)c1ccccc1` [Picarbutrazox, picarbutrazox] as the molecule, how does the Observed efficacy ([1]; 0.063 ppm) read?
Answer: 8

Question: Which results are given for `CON(C(=O)c1cn(C)nc1C(F)F)C(C)Cc1c(Cl)cc(Cl)cc1Cl` (stereo not drawn) [Pydiflumetofen, pydiflumetofen]?
Answer: Observed efficacy ([3]; 0.00025 ppm): 9; Observed efficacy ([5]; 0.004 ppm): 5; Observed efficacy ([5]; 0.016 ppm): 23
